In patent US10011615B2, “Heterobicyclo-substituted [1,2,4]triazolo[1,5-c]quinazolin-5-amine compounds with A2A anatagonist properties” (Merck Sharp & Dohme Corp., priority 2012, dated 2018):
pEC50: −log10 of the molar value. Values joined by “and” are separate entries in the source; they are usually repeats but may differ in a detail not shown here. Equal entries are not always repeated.

Molecular target: T1, human A2a receptor (Homo sapiens, UniProt P29274)
T1 construct: purchased Perkin-Elmer RBHA2AM400UA; host or cells: HEK293 cell membranes
Experiment: A2a receptor competition binding assay using Scintillation Proximity technology
Details: membranes from HEK293 cells expressing human A2a receptor; 0.5 nM tritiated radioligand; SPA beads; 1 h room temperature
Description: Binding affinities of compounds of the invention for the human A2a receptor were determined in a competition binding assay using Scintillation Proximity technology. Thus, 0.3 μg of membranes from HEK293 cells expressing the human A2a receptor were incubated with a compound of the invention at concentrations ranging from 3000 nM to 0.15 nM in a reaction mixture containing also 0.5 nM of a tritiated form of 5-amino-7-[2-phenethyl]-2-(furan-2-yl)-7H-pyrazolo[4,3-e][1,2,4]triazolo[1,5-c]pyrimidine (the tritiated compound) and 100 μg of wheat germ agglutin-coated yttrium silicate SPA beads for one hour at room temperature with agitation. The beads were then allowed to settle to the bottom of the wells for 1 hr, after which the membrane-associated radioactivity was determined by scintillation counting in a TopCount microplate reader. Ki values were determined using the Cheng-Prusoff equation.
Summary of Materials and Methods Used in A2a Activity Determination:
HEK293 cells expressing the human, rat, dog or monkey adenosine 2a receptor (Purchased from Perkin-Elmer # RBHA2AM400UA).
The Tritiated compound was prepared in-house by MRL Radiochemistry according to published methods.
Wheat germ agglutinin-coated yttrium silicate SPA beads (GE Healthcare#RPNQ0023). Dilute to 25 mg/ml in assay buffer.
Assay Buffer was prepared in house: Dulbecco's calcium and magnesium free phosphate buffered saline+10 mM MgCl2
Adenosine deaminase from calf intestine, 10 mg/2 ml (Roche) 10 102 105 001).
A2a antagonist standard (9-chloro-1-(2-furanyl)-[1,2,4]triazolo1,5-c]quinazolin-5-amine from Tocris Bioscience)
Make eight 1:3 serial dilutions in 100% DMSO from a 3 mM compound stock
Transfer 50 nl of compound into a 384-well OptiPlate (Perkin Elmer).
Typically, final concentrations of compound used in the assay ranged from 3000 nM to 0.152 nM.
Dilute a solution of the Tritiated compound to 1.25 nM in assay buffer. This is a 2.5× solution. The final concentration in the assay is 0.5 nM. Calculate the concentration by counting two 5 μl aliquots.
Use 0.25 ug of membrane/well. Dilute membranes to 9.7 μg/ml in assay buffer. Treat with 20 ug/ml adenosine deaminase (ADA) for 15 minutes at room temperature to degrade endogenous adenosine.
Use 100 μg/well wheat germ agglutinin-coated yttrium silicate SPA beads.
Mix ADA-treated membranes and SPA beads together for 30 min prior to assay.
To the Perkin-Elmer Optiplate-384 containing the compound titration add 20 μl of 2.5× solution of the Tritiated compound and 30 μl of the membrane-bead mixture. Incubate for one hour at room temperature with agitation.
Include total binding (assay buffer+1% DMSO) and non-specific binding (CGS15943, 1 μM) wells.
Allow the beads to settle for one hour.
A curve fitting program (i.e., Prism, Activity Base, Chemcart) is used to determine the EC50. The Ki value is calculated using the Cheng-Prusoff equation: K i=EC50/(1+(radioligand concentration/Kd)).

T1 sequence (P29274 whole entry): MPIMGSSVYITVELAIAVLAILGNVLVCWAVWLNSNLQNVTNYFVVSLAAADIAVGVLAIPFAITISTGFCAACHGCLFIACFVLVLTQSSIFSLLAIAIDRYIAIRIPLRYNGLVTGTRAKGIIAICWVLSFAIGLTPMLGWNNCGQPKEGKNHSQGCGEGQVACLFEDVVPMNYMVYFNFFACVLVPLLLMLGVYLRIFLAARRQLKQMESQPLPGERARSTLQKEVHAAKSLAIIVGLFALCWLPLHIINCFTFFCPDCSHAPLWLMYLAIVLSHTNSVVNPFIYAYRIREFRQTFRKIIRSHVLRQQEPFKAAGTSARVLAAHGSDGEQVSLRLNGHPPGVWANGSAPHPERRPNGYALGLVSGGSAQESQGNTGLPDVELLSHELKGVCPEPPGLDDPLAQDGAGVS

Row | SMILES | pEC50
1 | COc1cccc2c1nc(N)n1nc(CCN3CCCn4nc(C#N)cc4C3)nc21 [Ex-61, 5-(2-(5-amino-7-methoxy-[1,2,4]triazolo[1,5-c]quinazolin-2-yl)ethyl)-5,6,7,8-tetrahydro-4H-pyrazolo[1,5-a][1,4]diazepine-2-carbonitrile] | 8.60
2 | COc1cccc2c1nc(N)n1nc(CCN3Cc4ccccc4C(C)(C)C3)nc21 [Ex-62, 2-(2-(4,4-dimethyl-3,4-dihydroisoquinolin-2(1H)-yl)ethyl)-7-methoxy-[1,2,4]triazolo[1,5-c]quinazolin-5-amine] | 8.21
3 | COc1cccc2c1nc(N)n1nc(CCN3Cc4ccc(N5CCN(C)CC5)nc4C3)nc21 [Ex-63, 7-methoxy-2-(2-(2-(4-methylpiperazin-1-yl)-5H-pyrrolo[3,4-b]pyridin-6(7H)-yl)ethyl)-[1,2,4]triazolo[1,5-c]quinazolin-5-amine] | 8.24
4 | COc1cccc2c1nc(N)n1nc(CCN3Cc4ccc(N5CCOCC5)nc4C3)nc21 [Ex-64] | 8.16
5 | COc1cccc2c1nc(N)n1nc(CCN3Cc4ccc(N5CCCC5)nc4C3)nc21 [Ex-65] | 7.87
6 | CCN1CCN(c2ccc3c(n2)CN(CCc2nc4c5cccc(OC)c5nc(N)n4n2)C3)CC1 [Ex-66] | 7.78
7 | COc1cccc2c1nc(N)n1nc(CCN3Cc4ccc(N5CCOC(C)(C)C5)nc4C3)nc21 [Ex-68] | 8.15
8 | COc1cccc2c1nc(N)n1nc(CCN3Cc4ccc(N5C[C@@H](C)O[C@@H](C)C5)nc4C3)nc21 [Ex-69] | 8.28
9 | COc1cccc2c1nc(N)n1nc(CCN3Cc4ccc(N5CCN(CC6CC6)CC5)nc4C3)nc21 [Ex-70] | 8.17
10 | COc1cccc2c1nc(N)n1nc(CCN3Cc4ccc(N5CCN(c6ccc(F)cc6)CC5)nc4C3)nc21 [Ex-71] | 8.54
11 | COc1cccc2c1nc(N)n1nc(CCN3Cc4ccc(N5CCC(N6CCOCC6)CC5)nc4C3)nc21 [Ex-72] | 8.30
12 | CCN1CCN(c2ccnc3c2CCN(CCc2nc4c5cccc(OC)c5nc(N)n4n2)C3)CC1 [Ex-73, 2-(2-(4-(4-ethylpiperazin-1-yl)-5,6-dihydro-1,7-naphthyridin-7(8H)-yl)ethyl)-7-methoxy-[1,2,4]triazolo[1,5-c]quinazolin-5-amine] | 8.52
13 | CCN(CC)c1ccnc2c1CCN(CCc1nc3c4cccc(OC)c4nc(N)n3n1)C2 [Ex-74] | 8.37
14 | COc1cccc2c1nc(N)n1nc(CCN3CCc4c(N5CCC(F)(F)C5)ccnc4C3)nc21 [Ex-76] | 8.43
15 | COc1cccc2c1nc(N)n1nc(CC(=O)N3Cc4cccnc4C3)nc21 [Ex-77, 2-(5-amino-7-methoxy[1,2,4]triazolo[1,5-c]quinazolin-2-yl)-1-(5,7-dihydro-6H-pyrrolo[3,4-b]pyridin-6-yl)ethanone] | 7.44
16 | COc1cccc2c1nc(N)n1nc(CC(=O)N3CCc4ccccc4CC3)nc21 [Ex-78] | 7.86
17 | Nc1nc2c(OCF)cccc2c2nc(CCN3Cc4cccnc4C3)nn12 [Ex-79, 2-(2-(5H-pyrrolo[3,4-b]pyridin-6(7H)-yl)ethyl)-7-(fluoromethoxy)-[1,2,4]triazolo[1,5-c]quinazolin-5-amine] | 7.65
18 | Nc1nc2c(Cl)cccc2c2nc(CCN3Cc4ccc(F)cc4C3)nn12 [Ex-80, 7-chloro-2-(2-(5-fluoroisoindolin-2-yl)ethyl)-[1,2,4]triazolo[1,5-c]quinazolin-5-amine] | 7.92
19 | Nc1nc2c(Cl)cccc2c2nc(CCN3CCCc4ccccc43)nn12 [Ex-82] | 7.61
20 | Nc1nc2c(F)cccc2c2nc(CCN3Cc4cccnc4C3)nn12 [Ex-83, 2-[2-(5,7-dihydro-6H-pyrrolo[3,4-b]pyridin-6-yl)ethyl]-7-fluoro[1,2,4]triazolo[1,5-c]quinazolin-5-amine] | 7.80
21 | Nc1nc2c(F)cccc2c2nc(CCN3CCCc4ccccc43)nn12 [Ex-84] | 8.20
22 | Nc1nc2c(F)cccc2c2nc(CCN3Cc4ccc(F)cc4C3)nn12 [Ex-85] | 7.65
23 | CCc1nnc2n1CCN(CCc1nc3c4cccc(F)c4nc(N)n3n1)C2 [Ex-86] | 8.17
24 | Nc1nc2c(F)cccc2c2nc(CCN3CCc4ccccc4C3)nn12 [Ex-87] | 7.72
25 | Nc1nc2c(F)cccc2c2nc(CCN3Cc4cnc(C(F)(F)F)nc4C3)nn12 [Ex-88] | 7.37
26 | Nc1nc2c(F)cccc2c2nc(CCN3Cc4cccc(F)c4C3)nn12 [Ex-89] | 7.32

Row | SMILES | pEC50
27 | Cc1cccc2c1nc(N)n1nc(CCN3CCc4ccccc4C3)nc21 [Ex-90, 2-(2-(3,4-dihydroisoquinolin-2(1H)-yl)ethyl)-7-methyl-[1,2,4]triazolo[1,5-c]quinazolin-5-amine] | 7.55
28 | Nc1nc2cc(F)ccc2c2nc(CCN3Cc4ccc(F)cc4C3)nn12 [Ex-91, 8-fluoro-2-[2-(5-fluoro-1,3-dihydro-2H-isoindol-2-yl)ethyl][1,2,4]triazolo[1,5-c]quinazolin-5-amine] | 7.58
29 | Nc1nc2cc(F)ccc2c2nc(CCN3Cc4cccnc4C3)nn12 [Ex-92] | 7.13
30 | Nc1nc2cc(F)ccc2c2nc(CCN3CCc4ccccc4C3)nn12 [Ex-93] | 7.43
31 | Nc1nc2cc(F)ccc2c2nc(CCN3CCCc4ccccc43)nn12 [Ex-94] | 7.56
32 | CCc1nnc2n1CCN(CCc1nc3c4ccc(F)cc4nc(N)n3n1)C2 [Ex-95] | 7.78
33 | Nc1nc2cc(F)ccc2c2nc(CCN3Cc4cccc(F)c4C3)nn12 [Ex-96] | 7.25
34 | COc1ccc2c(nc(N)n3nc(CCN4Cc5cccnc5C4)nc23)c1OC [Ex-97] | 6.62
35 | COc1cc(F)cc2c1nc(N)n1nc(CCN3Cc4cccnc4C3)nc21 [Ex-98] | 7.72
36 | Nc1nc2cc(F)c(F)cc2c2nc(CCN3Cc4cccnc4C3)nn12 [Ex-99] | 6.95
37 | Nc1nc2c(F)cc(F)cc2c2nc(CCN3Cc4cccnc4C3)nn12 [Ex-100] | 7.51
38 | COc1cccc2c1nc(N)n1nc(C[C@H](C(F)F)N3Cc4cccnc4C3)nc21 [Ex-102] | 7.26
39 | COc1cccc2c1nc(N)n1nc(C[C@@H](C(F)F)N3Cc4cccnc4C3)nc21 [Ex-103] | 8.08
40 | COc1cccc2c1nc(N)n1nc(CC(CF)N3Cc4cccnc4C3)nc21 (stereo not drawn) [Ex-104] | 8.00 and 7.84
41 | COc1cccc2c1nc(N)n1nc(C[C@H](C)N3Cc4cccnc4C3)nc21 [Ex-106] | 7.71
42 | COc1cccc2c1nc(N)n1nc(C[C@@H](C)N3Cc4cccnc4C3)nc21 [Ex-107] | 8.16
43 | COc1cccc2c1nc(N)n1nc(CC(N3Cc4cccnc4C3)C(F)(F)F)nc21 (stereo not drawn) [Ex-108] | 7.75
44 | COc1cccc2c1nc(N)n1nc(C[C@H](N3Cc4cccnc4C3)C(F)(F)F)nc21 [Ex-109] | 7.91
45 | COc1cccc2c1nc(N)n1nc(C[C@@H](N3Cc4cccnc4C3)C(F)(F)F)nc21 [Ex-110] | 7.40
46 | CCC(Cc1nc2c3cccc(OC)c3nc(N)n2n1)N1Cc2cccnc2C1 (stereo not drawn) [Ex-111] | 7.92
47 | CC[C@H](Cc1nc2c3cccc(OC)c3nc(N)n2n1)N1Cc2cccnc2C1 [Ex-112] | 8.31
48 | CC[C@@H](Cc1nc2c3cccc(OC)c3nc(N)n2n1)N1Cc2cccnc2C1 [Ex-113] | 7.64
49 | COc1cccc2c1nc(N)n1nc(CC(C)N3Cc4ccc(F)cc4C3)nc21 (stereo not drawn) [Ex-114] | 8.37
50 | CCCC(Cc1nc2c3cccc(OC)c3nc(N)n2n1)N1Cc2cccnc2C1 (stereo not drawn) [Ex-115] | 7.67
51 | COc1cccc2c1nc(N)n1nc(CN3Cc4ccc(F)cc4C3)nc21 [Ex-117, 2-((5-fluoroisoindolin-2-yl)methyl)-7-methoxy-[1,2,4]triazolo[1,5-c]quinazolin-5-amine] | 8.23
